# Measured values taken from a melting point compilation (Tetko et al.; mined from patent text by program, amines drawn as free bases though some values may be those of a salt).
row,melting point [°C],Structure (SMILES)
1,350 to 357,NC(=O)c1ccc2nc3c(c(=O)n2c1)CCC3=Cc1ccccc1
2,199 to 200,Nc1ncnc2c1c(-c1ccc(Oc3ccccc3)cc1)cn2C1CCC(O)CC1 (centres undefined)
3,143 to 145,O=C(O)CCn1nnnc1-c1ccc2c(c1)S(=O)(=O)c1ccccc1C2=O
4,89 to 90,N#CC1c2ccccc2CCc2ccccc21
5,211 to 213,CC(C)(C)OC(=O)c1nc(-c2ccccc2)[nH]c1-c1ccccn1
6,84,CNC(=O)[C@@H]1C[C@@H](OC(C)(C)C)CN1S(=O)(=O)c1ccc(Cl)c(COc2cccc3c(-n4ccnc4)cc(C)nc23)c1Cl
7,150 to 155,O=C1CC(c2ccc(OCc3ccccc3)cc2)CN1O (centres undefined)
8,120,O=C(O)C(=O)c1ccc(OCc2cc3ccccc3o2)cc1
9,95 to 98,COc1ccc(-c2cc(C3CCCCC3)sc2-c2ccc(OC)cc2)cc1
10,183 to 185,CCCC(=O)c1cnc2c(C(C)=O)cccc2c1Nc1ccc(O)cc1C
11,68 to 70,OC(COc1cccc2ccccc12)CN1CCCC1 (centres undefined)
12,280,COc1ccc2[nH]cc(C3=C(c4c[nH]c5ccccc45)C(=O)NC3=O)c2c1
13,178 to 180,CC(C)(C)OC(=O)NC(CSCc1ccc(-c2ccc(-c3ccc4c(c3)OCO4)cc2)cc1)C(=O)O (centres undefined)
14,245 to 246,Cc1cccc(C)c1CNc1cc(CO)cc2c1nc(C)n2C
15,167,O=C1CCn2c(Cc3ccc(Cl)cc3)nc3c(Cl)ccc1c32
16,64.5 to 66,Cc1ccccc1NN=C(Cl)c1ccccc1
17,157 to 159,Clc1ccccc1CSc1nc2cccc3c2n1CCC3
18,106 to 107,Cc1oc(-c2ccccc2)nc1COc1cccc([N+](=O)[O-])c1
19,85 to 89,CCCc1c(OCC(O)COc2cccc(N)c2)ccc(C(C)=O)c1O (centres undefined)
20,215 to 220,O=C1CC2(Cc3cc4ccccc4n3C2)C(=O)N1 (centres undefined)
21,93 to 94,COc1ccc(-c2nc(CNC(=O)OCc3ccccc3)sc2-c2cccnc2)cc1
22,261 to 263,COc1cc2c(cc1S(=O)(=O)c1ccc(C)cc1)[C@@H](N1CCCCC1=O)[C@H](O)C(C)(C)O2 (relative stereo)
23,114 to 115,CCCC(O)C(C)C(=O)NCc1ccccc1 (centres undefined)
24,189 to 191,O=C(O)c1cc(S(=O)(=O)n2ccc3ccccc32)ccc1Br
25,110 to 114,COc1ccc(-c2nc(-c3cccs3)c[nH]2)cc1C
26,82,COC(=O)CC(=O)c1ccc(-c2ccccc2)cc1

row,melting point [°C],Structure (SMILES)
1,130 to 134,CCC1=NC=C(c2ccc3c(c2)NC(=O)CO3)C(c2ccccc2)S1 (centres undefined)
2,180 to 184,CC(C)(C)c1ccc(-c2sc(N)c(C(=O)c3ccc(Cl)cc3)c2CN(C2CCCCC2)C2CCCCC2)cc1
3,235,CCc1ccc(C2CCN(CCCCNC(=O)c3ccc(NC(=O)c4ccc(Cl)cc4)cc3)CC2)c(OC)c1
4,196 to 198,Cc1cc(-c2cccc(C(F)(F)F)c2)nn2c(C)nnc12
5,152,CCOc1cc(COc2cc(CCC(=O)O)n(-c3ccccc3)n2)cc(COc2ccc(Cl)cc2Cl)c1
6,120 to 125,C=CC(=O)OCc1c2ccccc2cc2ccccc12
7,176 to 182,Nc1sc2c(c1C(=O)c1ccc3c(c1)Cc1ccccc1-3)CCC2
8,93 to 94,COc1ccc(CC(O)c2ccccn2)cc1OC (centres undefined)
9,125 to 136,Cc1c(C)c2c(c(C)c1N)C(c1ccc(C3OCCO3)cc1)CO2 (centres undefined)
10,162 to 164,Cc1ccc(-c2cc3cc(C=O)ccc3o2)cc1
11,275,CCN1C(=O)C(=CC=C2C=C3N(C)c4ccccc4N3CC2)SC1=S
12,115,[O-][N+](=Cc1ccc(OCc2ccccc2)cc1)C1CCCC1
13,178,Cc1csc(C(=O)N2CCCC2)c1-n1cccc1
14,183 to 185,Cc1c(C=NO)c2cc(F)ccc2n1-c1ccc(OCc2ccccc2)cc1
15,125,COc1ccc(/C=C/C(=O)c2ccc(OCc3ccccc3)cc2OCc2ccccc2)c(OC)c1C
16,148 to 151,CCOC(=O)C(NC(=O)NN1CC(=O)NC1=O)c1ccccc1 (centres undefined)
17,130 to 132,CSc1nccc(Oc2ccc(NC(=O)c3cc(F)cc(OC4CCCCC4)c3)c3ccccc23)n1
18,168 to 170,C#CC[C@H](c1nc2cc(Cl)ccc2c(=O)n1Nc1ccccc1)N(CCCN)C(=O)c1cccc(F)c1F
19,218 to 219,C=CCC1C(=O)N(Cc2ccccc2)c2ccccc2N(C(=O)CN2C(=O)c3ccccc3C2=O)C1C (centres undefined)
20,133 to 135,O=C(c1ccc(-n2cccn2)nc1Cl)N1Cc2cccn2Cc2ccccc21
21,211 to 212,CN1CCN(c2cccc3c2C[C@H](NC(=O)c2ccc(N4CCN(CCO)CC4)cc2)CO3)CC1
22,115,CCOCCn1c(N(Cc2ccccc2)C2CCN(C(=O)OCC)CC2)nc2cccnc21
23,94 to 96,CC(C)Cn1c(=O)n(C)c(=O)c2c(SCCCN=[N+]=[N-])c(Cc3cccc4ccccc34)sc21
24,260 to 262,CCCc1c2c(c(O)c3c(=O)cc(C(=O)O)oc13)CCCC2
25,247 to 248,CN1C(=O)c2[nH]c3ccccc3c2Oc2ccccc21

# More lines, now with the values behind:
row,Structure (SMILES),melting point [°C]
1,Nc1n[nH]cc1C(=O)NC/C=C\COc1cc(CN2CCCCC2)ccn1,172 to 174
2,CCCCCCCCCCCCCCOc1ccc2ccc(=O)oc2c1,59 to 60
3,CC(=O)N(CCCc1ccccc1)[C@H]1CC[C@H](c2ccc(O)cc2)CC1,175 to 180
4,O=C(O)CCc1[nH]nc2c1CCC2,157 to 159
5,CCC(Br)C(=O)c1ccc(OC)c(OCC(F)(F)F)c1 (centres undefined),120 to 121
6,Cc1nccn1-c1ccc([N+](=O)[O-])cc1,135 to 137
7,CC(C)c1ccc(S(=O)(=O)Nc2ccc(N3CCC(NCC(O)COc4ccc(O)c(S(C)=O)c4)CC3)nc2)cc1 (centres undefined),128 to 130
8,C=C(C[C@@H](Cc1ccccc1)C(=O)N1CCOCC1)[C@H](C)[C@H](Cc1ccccc1)C(=O)N1CCOCC1 (relative stereo),125 to 126
9,O=C1CC2Cc3c(Cl)cccc3C2N1 (centres undefined),186 to 187
10,CNC(=O)C(Cc1ccc(OC)cc1)NC(=O)CC(SC(C)=O)C(CC(C)C)C(N)=O (centres undefined),235 to 240
11,COP(=O)(OC)C(O)=Cc1cccc(Cl)c1,136 to 138
12,CCCCN(CCCC)c1ccc(C=CC2=CC(=CC=CC3=C(C#N)C(=C(C#N)C#N)OC3(C)C)CC(C)(C)C2)c(OC)c1,228 to 230
13,O=C(c1ccc(O)cc1)c1ccc2cc(C(=O)c3ccc(O)cc3)ccc2c1,307
14,COC(=O)COc1c(OC)cc(C=O)cc1OC,99 to 100
15,CCCc1c(OCCCOc2ccc(C(=O)C(=O)O)cc2)ccc(C(=O)O)c1O,182 to 185
16,CC(=O)c1c(F)ccc(NC2OC(=O)CC(=O)O2)c1F,82 to 84
17,CC(C)N(C=O)C(=O)c1nc(Cl)c(Cl)[nH]1,142
18,CS(=O)(=O)c1ccc(-n2cncc2-c2cnc(Cl)c(Cl)c2)cc1,192 to 198
19,O=C(CCCCCNC(=O)c1ccccc1S)Nc1cccnc1,110 to 112
20,NNC1=NCc2c[nH]c3cccc1c23,188 to 189
21,CCOC(=O)C(=CNC1CC1)C(=O)c1c(F)c(C)c(F)c(F)c1[N+](=O)[O-],115 to 116
22,CCC(O)(CC)c1cc(Br)ccc1N,64 to 66
23,CCCC(C=NNC(=O)OC)c1ccc(Cl)cc1Cl (centres undefined),165 to 166
24,CC1(C)Oc2ccc(S(=O)(=O)C(F)(F)C(F)(F)C(F)(F)F)cc2[C@@H](N)[C@@H]1O (relative stereo),176 to 177

row,Structure (SMILES),melting point [°C]
1,COc1cc(C(O)CCCc2ccccc2)ccc1OCc1ccccc1 (centres undefined),71 to 73
2,CCCCCCCCCCCCCCCCCCS(=O)(=O)Nc1ccc(O)cc1,142
3,O=C(O)CCC(=NO)c1ccc(-c2ccc(C(F)(F)F)cc2)cc1,134 to 136
4,CN(C(=O)OC(C)(C)C)c1ccc(-c2ncn(-c3ccc(OC(F)(F)F)cc3)n2)cc1,125 to 128
5,COC(=O)c1ccccc1S(=O)(=O)NC(=O)Nc1ncc(Cl)cn1,217 to 221
6,COc1ccc(OC(CCCN2CC3CCC(C2)N3C(=O)OC(C)(C)C)c2ccc(C#N)cc2)cc1OC (centres undefined),38 to 41
7,CCN(CC)c1ccc(/C=C/C(=O)CC(=O)/C=C/c2ccc(OC)c(O)c2)c(O)c1,101 to 108
8,COC(=O)Cc1ccc(OCCNC(=O)C2Cc3c(OC)cccc3N2S(=O)(=O)c2ccc(-c3cccc(C(F)(F)F)c3)cc2)cc1 (centres undefined),64
9,"COCC1=C(C(=O)NCCCN2CCC(c3ccc(F)cc3)CC2)C(c2ccc(F)c(F)c2)NC(=O)N1 (single isomer, unassigned; (-))",149 to 150
10,COc1ccc2c3c1OC1C(=O)CC(C)C4(OC)C(C2)N(C)CCC314 (centres undefined),204 to 205
11,COc1ccc(C(=O)NCCCCCCCCNC(=O)c2ccc(OC)cc2)cc1,175 to 176
12,COC(=O)C(Oc1ccc([N+](=O)[O-])cc1)C(C)=O (centres undefined),87.5 to 88
13,Cc1cc(Oc2c(F)cc(C(F)(F)F)cc2Cl)nn1C(=O)NCCBr,85 to 86
14,COc1ccc(-c2nn(Cc3ccncc3)c(=O)cc2-c2ccc(Cl)cc2)cc1,142 to 143
15,CCCn1ncc(C(N)=O)c1N,183 to 185
16,O=[N+]([O-])c1ccc(OC(c2c(Cl)cccc2Cl)C(F)(F)F)cc1 (centres undefined),108
17,c1cnc2c(c1)NCC2,63
18,CC(C)(C)OC(=O)NC[C@H]1CC[C@H](C#N)CC1,100 to 101
19,CCCCCCC(=O)c1ccc(O)cc1,93
20,CS(=O)(=O)c1cc2c(c(C(=O)O)c1)OCCO2,247 to 249
21,Clc1nccc2scc(Br)c12,153 to 155
22,CCc1cn(C2CC(OC)C(CO)O2)c(=O)[nH]c1=O (centres undefined),118 to 127
23,CS(=O)(=O)c1ccc(-c2cnn(CC(F)(F)F)c(=O)c2NCCCO)cc1,152 to 154
24,c1ccc2c(c1)-c1ccccc1C21c2cccnc2-c2ncccc21,208 to 210
